Assay results taken from patent US20160304957A1, “TREATMENT AND MODULATION OF GENE EXPRESSION AND SKIN AGING” (DSM NUTRITIONAL PRODUCTS LTD., priority 2006, published 2016).

System: HaCaT human keratinocytes
Test: Affymetrix GeneChip microarray, transcriptional response to β-carotene and/or UVA
Type: cell-based
Settings: UVA and β-carotene 1.5 μM
Description: The cell culture experiments were carried out as described. Briefly, a subclone of passage 65 HaCaT keratinocytes, selected for differentiation capacity, was used at passages 16 to 23 after subcloning. 2×10^5 cells were seeded per 60 millimeter dish. Starting the following day, the cells were pretreated for 2 days with β-carotene at 1.5 μM, a typical concentration in human plasma after moderate dietary supplementation)
β-carotene-containing medium was prepared as follows. Fresh all-E-β-carotene (DSM Nutritional Products, Kaiseraugst, Switzerland) stock solution in THF (containing 0.025% BHT; Fluka Chemie A G, Switzerland) was diluted 1:2 with ethanol and added to cell culture medium to a final concentration of 1.5 μM β-carotene. The solvent concentration in the medium was 0.5% for all treatments. β-carotene-containing medium was prepared fresh for the daily medium changes.
On day 3 of the experiment, the cells were irradiated with a Hönle sun lamp Sol 500 (270 kJ/m^2; Dr. Hönle, Germany).
Five independent, factorially designed cell irradiation experiments were analyzed by microarray hybridization. For each experiment, one chip was hybridized per treatment condition. GeneChip® analysis was done as described in [132], which is incorporated by reference, as if recited in full herein. Gene regulation by β-carotene and/or UVA was calculated relative to placebo.
Changes in gene expression were included in further analysis only if the change factor was […], and if unpaired t-tests yielded p values≦0.05. Upregulations by a […] are labeled bold, downregulations by a change factor of […] are labeled bold italics. (Table 1) To identify the pathways affected by the treatments functional information on the genes was retrieved from public literature databases.

CC1=C(/C=C/C(C)=C/C=C/C(C)=C/C=C/C=C(C)/C=C/C=C(C)/C=C/C2=C(C)CCCC2(C)C)C(C)(C)CCC1 [β-carotene, All-E-β-carotene]
5-aminolevulinate synthase (Y00451) change factor: 0.41 | AAC11 (U83857) change factor: −0.05 | AP-2α (M36711) change factor: −0.67 | ATF4; activating transcription factor 4 (AL022312) change factor: 0.96 | BAXγ (L22475) change factor: −0.34 | BAXδ (U19599) change factor: 0.67 | BMP2a; bone morphogenetic protein 2a (bmp-2a) (M22489) change factor: 0.16 | BPAG1; bullous pemphigoid antigen (M69225) change factor: 0.12 | BUB1; mitotic checkpoint kinase (AF053305) change factor: −0.81 | C-FOS (V01512) change factor: 2.49 | C-FOS (V01512, second entry) change factor: 1.36 | C-JUN (J04111) change factor: 0.93 | C/EBPβ; NF-IL6 (X52560) change factor: 0.83 | C/EBPγ (U20240) change factor: 0.71 | C/EBPδ; NF-IL6-β (M83667) change factor: 0.31 | CDK activating kinase (X77743) change factor: 0.57 | CDK-inhibitor p57KIP2 (KIP2) mrna (U22398) change factor: 0.79 | CENP-A; centromere protein-A (U14518) change factor: −1.82 | CENP-E; centromere protein-E (Z15005) change factor: −1.44 | CENP-F; mitosin (U30872) change factor: −1.22 | CEP110; centriole associated protein (AF083322) change factor: −4.18 | CIP2; CDKN3 (L25876) change factor: −0.81 | CLARP; CFLAR, alternatively spliced (AF005775) change factor: −0.62 | COUP-TF II; ARP1; apoA1 regulatory protein (M64497) change factor: 0.81 | COX-2, cyclooxygenase-2 (U04636) change factor: 0.2 | CRADD; death domain containing protein (U84388) change factor: −0.87 | DKK-1; dickkopf-1 (AB020315) change factor: 1.4 | DNA ligase III (X84740) change factor: −0.71 | DNA polymerase α-subunit (X06745) change factor: −0.63 | DNA primase (subunit p58) (X74331) change factor: −0.41 | DNA-PK, catalytic subunit (U47077) change factor: −1.06 | DSC2; desmocollin type 2a and 2b (X56807) change factor: −0.29 | DUSP5 (U15932) change factor: 2.84 | DUSP7 (X93921) change factor: 0.99 | EGFR; precursor of epidermal growth factor receptor (X00588) change factor: −0.69 | ENDOGL-2 (AB020735) change factor: 0.41 | ERBB3 precursor; similar to (H06628) change factor: −0.78 | ERCC5; excision repair protein (L20046) change factor: −0.95 | ERF-2 (X78992) change factor: 0.99 | FGFR2; FGF receptor 2 (M87770) change factor: −0.48 | FGFR3; FGF receptor (M64347) change factor: −2.58 | FRA-1 (X16707) change factor: 0.71 | FRA-2 (X16706) change factor: −0.13 | GADD34 (U83981) change factor: 2.62 | GADD153 (S62138) change factor: 7.64 | GDF-1; growth/differentiation factor 1 (gdf-1) (M62302) change factor: −0.43 | GEM (U10550) change factor: 3.91 | HB-EGF; heparin-binding egf-like growth factor (M60278) change factor: 3.32 | HER3; epidermal growth factor receptor (her3) (M34309) change factor: −1.12 | HER3; epidermal growth factor receptor (her3) (M34309, second entry) change factor: −1.56 | HM74; PAR1-related (D10923) change factor: −0.55 | HOXA7 (AJj005814) change factor: −0.52 | HOXC6 (S82986) change factor: −0.82 | HOXD4 (X59373) change factor: −0.76 | ID1 (X77956) change factor: −2.43 | ID1 (X77956, second entry) change factor: −4.7 | ID3; HEIR1 (AL021154) change factor: −4.35 | ID-2H (D13891) change factor: −2.68 | ID-4 (AL022726) change factor: −0.49 | IEX-1 (S81914) change factor: 0.91 | IFIT1; IFI56 (M24594) change factor: −0.61 | IFIT1; IFI56 (M24594, second entry) change factor: −0.71 | IFIT2; ISG-54K (M14660) change factor: 1.17 | IFIT2; ISG-54K (M14660, second entry) change factor: 0.58 | IFIT4; IFI60; cig5; RIGG (AF026941) change factor: 5.46 | IGF-BP 3; insulin-like growth factor-binding protein-3 gene (M35878) change factor: 1.64 | IGF-BP 3; insulin-like growth factor-binding protein-3 gene (M35878, second entry) change factor: 1.73 | IL6; Interleukin 6; IFNβα2a (X04430) change factor: 2.29 | IL18; IGIF (IFNγ inducing factor) (D49950) change factor: −0.18 | ILK; integrin-linked kinase (U40282) change factor: −0.51 | IRF-1; interferon regulatory factor 1 (L05072) change factor: 0.29 | IRF-7b; interferon regulatory factor 7b (U53831) change factor: 0.49 | IRF-9; p48; ISGF3γ (M97935) change factor: −0.67 | JUNB (M29039) change factor: −0.72 | JUNB (X51345) change factor: −0.7 | JUND (X56681) change factor: 3.2 | JUND (X56681, second entry) change factor: 1.83 | JUND (X56681, third entry) change factor: 1.66 | K-RAS (M54968) change factor: −0.64 | KINESIN-LIKE 2; HSET (AL021366) change factor: −0.72 | KINESIN-LIKE 2; HSET (D14678) change factor: −0.72 | KINESIN-LIKE 2; HSET (D14678, second entry) change factor: −1.15 | KINESIN-LIKE 5; KNSL5; MKLP-1; mitotic kinesin-like protein-1 (X67155) change factor: −1.04 | KINESIN-LIKE 6; KNSL6; MCAK; mitotic centromere-associated kinesin (U63743) change factor: −1.61 | KINESIN_LIKE 1; KNSL1; HKSP; EG5 (U37426) change factor: −0.92 | KLF4; EZF (epithelial Zn finger) (U70663) change factor: 3.46 | KRS-2; stress responsive serine/threonine protein kinase (U60207) change factor: −0.35 | KU (p70/p80) (M30938) change factor: −0.64 | LIM kinase 2 (limk-2) (D45906) change factor: −0.66 | Lekti (AJ228139) change factor: 0.75 | MAD3L; mitotic checkpoint kinase (AF053306) change factor: −2.45 | MAF-F (AL021977) change factor: 1.71 | MAP kinase phosphatase (mkp-2) (U48807) change factor: 1.12 | MAPK9; JNK2 (U09759) change factor: −0.57 | MAPK14; p38; csaids binding protein (csbp1) (L35263) change factor: −0.53 | MAPKK3b; MKK3b (D87116) change factor: 0.62 | MAPKK MEK5b (U71087) change factor: −0.7 | MAPKKK5; ASK1 (U67156) change factor: −4.7 | MEIS2 (AF017418) change factor: −1.3 | MMP10 (X07820) change factor: 2.2 | MMP-1 (M13509) change factor: −0.22 | MMP-3 (X05232) change factor: 0.93 | N-RAS (X02751) change factor: −0.01
